ChEMBL document CHEMBL5360578, “Design, synthesis and evaluation of novel pyrrole-hydroxybutenolide hybrids as promising antiplasmodial and anti-inflammatory agents” (Eur J Med Chem, 2023)
Activity calls are given as the source filed them. The rule behind the calls is not given here.

Key:
[1] = Stability in simulated gastric fluid assessed as compound remaining at pH 1.2 measured upto 120 mins by LC-MS analysis; assay type: ADME; conditions: read-out: Stability
[2] = Half life in fasted Swiss mouse at 100 mg/kg, po measured upto 48 hrs by LC-MS/MS analysis; assay type: ADME, organism-based; conditions: in vivo
[3] = system: Plasmodium falciparum; test: Antimalarial activity against asynchronous chloroquine-sensitive Plasmodium falciparum 3D7 assessed as parasite growth inhibition infected in erythrocytes incubated for 72 hrs by SYBR green dye based assay; assay type: functional, organism-based; conditions: 3D7, 72 h
[4] = system: HEK-293T; test: Antiinflammatory activity against HEK293T cells assessed as fold increase in TNFalpha-induced NF-kappaB activity at 10 uM incubated for 1 hr followed by TNFalpha treatment for 5 hrs by luciferase based assay (reference value: 17.1); assay type: functional, Homo sapiens
[5] = MRT in fasted Swiss mouse at 100 mg/kg, po measured upto 48 hrs by LC-MS/MS analysis; assay type: ADME, organism-based; conditions: in vivo
[6] = Tmax in fasted Swiss mouse at 100 mg/kg, po measured upto 48 hrs by LC-MS/MS analysis; assay type: ADME, organism-based; conditions: in vivo
[7] = system: Plasmodium falciparum; test: Antimalarial activity against asynchronous chloroquine-resistant Plasmodium falciparum K1 assessed as parasite growth inhibition infected in erythrocytes incubated for 72 hrs by SYBR green dye based assay; assay type: functional, organism-based; conditions: K1, 72 h
[8] = Stability in simulated intestinal fluid assessed as compound remaining at pH 6.8 measured upto 120 mins by LC-MS analysis; assay type: ADME; conditions: read-out: Stability
[9] = AUC in fasted Swiss mouse at 100 mg/kg, po measured upto 48 hrs by LC-MS/MS analysis; assay type: ADME, organism-based; set-up: dose 100 mg/kg, time < 48 hrs, route po; conditions: in vivo
[10] = Clearance in fasted Swiss mouse at 100 mg/kg, po measured upto 48 hrs by LC-MS/MS analysis; assay type: ADME, organism-based; conditions: in vivo
[11] = Cmax in fasted Swiss mouse at 100 mg/kg, po measured upto 48 hrs by LC-MS/MS analysis; assay type: ADME, organism-based; set-up: time < 48 hrs, dose 100 mg/kg, route po; conditions: in vivo
[12] = Stability in simulated physiological fluid assessed as compound remaining at pH 7.4 measured upto 120 mins by LC-MS analysis; assay type: physicochemical; conditions: read-out: Stability
[13] = system: THP-1; test: Cytotoxicity against LPS-stimulated human THP-1 cells assessed as cell viability at 10 uM incubated for 12 hrs followed by LPS treatment measured after 4 hrs by PI staining based flow cytometry; assay type: functional; conditions: time 16.0 hrs
[14] = Volume of distribution in fasted Swiss mouse at 100 mg/kg, po measured upto 48 hrs by LC-MS/MS analysis; assay type: ADME, organism-based; conditions: in vivo
[15] = Cytotoxicity against African green monkey Vero cells incubated for 3 days by fluorescence based assay; assay type: toxicity, cell-based; conditions: chlorocebus sabaeus, time 3 day
[16] = Toxicity in Swiss mouse infected with chloroquine-resistant Plasmodium yoelii N67 assessed as mean survival time at 100 mg/kg/day, po for 4 days (reference value: 7.2 +/- 1.3 day); assay type: organism-based; conditions: in vivo, 96 h, time 4 day
[17] = system: Plasmodium yoelii; test: Antimalarial activity against chloroquine-resistant Plasmodium yoelii N67 infected in Swiss mouse assessed as parasite growth suppression at 100 mg/kg/day, po for 4 days measured on day 4 relative to control; assay type: functional; conditions: time 4 day
[18] = Stability in mouse plasma assessed as compound remaining at 10 uM measured upto 120 mins by LC-MS analysis; assay type: ADME, cell-free; conditions: read-out: Stability
[19] = system: THP-1; test: Antiinflammatory activity against human THP-1 cells assessed as inhibition of LPS-induced TNFalpha level at 10 uM incubated for 12 to 14 hrs followed by compound replenishment for 1 hr and subsequent LPS treatment for 4 hrs by ELISA assay (reference value: 93.43 %); assay type: functional; set-up: scale not given: the % may be the effect or the level left; conditions: time 17-19 hrs
[20] = system: Plasmodium yoelii; test: Antimalarial activity against chloroquine-resistant Plasmodium yoelii N67 infected in Swiss mouse assessed as parasite growth suppression at 100 mg/kg/day, po for 4 days measured on day 7 relative to control; assay type: functional; conditions: time 7 day

Cc1c(C(=O)Nc2ccccc2)c(-c2ccccc2)c(-c2ccc(C(C)C)cc2)n1CC1=CC(=O)OC1O (stereo not given)
remaining at 2 h [1]: 85.4% | half-life [2]: 3.23 h | IC50 [3]: 960 nM | fold change (FC) [4]: 9.4 | MRT [5]: 5.34 h | Tmax [6]: 0.25 h | IC50 [7]: 1670 nM | remaining at 2 h [8]: 86.2% | AUC at 48 h [9]: 1730 ng·h/mL | CL/F [10]: 966 mL/min/kg | Cmax [11]: 415 ng/mL | remaining at 2 h [12]: 94.8% | Activity [13]: Active | Vd [14]: 270.36 L/kg | CC50 at 72 h [15]: 126000 nM | MST [16]: 23.4 days | Activity [17]: 77.79% | remaining at 2 h, 10 µM [18]: 85.8% | Activity [19]: 91.44% | Activity [20]: 100%
